Data reported in publication PMC13201543 (Communications Biology, 2026).
Entries after “also recorded” stand apart in the source; their conditions may differ.

Tests used:
A*33 = assay: Surface plasmon resonance, immobilized A*33; assay type: binding, human; conditions: for SPR binding to A*33 (in words): Biacore T200, recombinant A*33
C*07 = assay: Surface plasmon resonance, immobilized C*07; assay type: binding, human; conditions: Biacore T200, recombinant C*07
A*24 = assay: Surface plasmon resonance, immobilized A*24; assay type: binding, human
[1] = target: recombinant C-terminal His-tag HLA-A*24 (human); assay: SPR
[2] = target: recombinant C-terminal His-tag HLA-A*33 (human); assay: SPR
[3] = target: recombinant His-tag HLA-C*07 (human); assay: SPR

Molecule: GNNQIDSTLKDLVEELSK [MSP3]
- SPR binding to A*33 (in words) (A*33): relatively weaker binding
- SPR binding response, A*33 compared with C*07 (A*33; MSP3 100 μM (Fig. 8C.iii)): Distinct decrease in SPR binding response
- binding to C*07 (in words) (C*07): strong binding affinity

Molecule: SMFWPCLLR [SAG2C]
- SPR binding to A*24 (in words) (A*24; Biacore T200, immobilized A*24, different concentrations of peptide): relatively weaker binding
- SPR binding response, A*24 compared with A*33 (A*24; SAG2C 100 μM (Fig. 6C.iii)): Distinct decrease in SPR binding response
- SPR binding to A*33 (in words) (A*33): higher binding affinity; also recorded: strong binding

B1: Toxoplasma antigenic peptide SAG2C, wild type (peptide)
peptide: SMFWPCLLR
- SPR response at 200 uM [1]: 15 RU
- SPR response at 200 uM [2]: 150 RU

B2: Plasmodium antigenic peptide MSP3 (peptide)
peptide: GNNQIDSTLKDLVEELSK
- SPR response at 200 uM [2]: 12 RU
- SPR response at 200 uM [3]: 60 RU
